Converted amounts (≈) assume the structure as drawn.
Key:
[1] = tested on: methicillin resistant Staphylococcus aureus (MRSA); assay: Assay for in vitro antibacterial activity, agar dilution (MRSA); settings: read-out: Minimum Inhibitory Concentration (MIC50) MRSA
[2] = tested on: vancomycin resistant Enterococci (VRE); assay: Assay for in vitro antibacterial activity, agar dilution (VRE); settings: Enterococcus, read-out: Minimum Inhibitory Concentration (MIC50) VRE

MIC50 [1] [µg/mL]	MIC50 [2] [µg/mL]	SMILES
4 (≈ 10.1 µM)	8 (≈ 20.1 µM)	CN(C)CC1CN(c2ccc(-c3ccc(-c4nnn(C)n4)nc3)c(F)c2)C(=O)O1 (stereo in doubt) [Compound 40, (R)-3-(4-(2-(2-methyltetrazol-5-yl)pyridin-5-yl)-3-fluorophenyl)-5-(N,N-dimethylaminomethyl)oxazolidin-2-one]
2 (≈ 4.75 µM)	2 (≈ 4.75 µM)	Cn1nnc(-c2ccc(-c3ccc(N4C[C@H](Cn5cncn5)OC4=O)cc3F)cn2)n1 [Compound 4, (R)-3-(4-(2-(2-methyltetrazol-5-yl)pyridin-5-yl)-3-fluorophenyl)-5-([1,2,4]triazol-1-yl)methyl oxazolidin-2-one]
16 (≈ 38 µM)	16 (≈ 38 µM)	Cn1nnc(-c2ccc(-c3ccc(N4C[C@H](Cn5nccn5)OC4=O)cc3F)cn2)n1 [Compound 8, (R)-3-(4-(2-(2-methyltetrazol-5-yl)pyridin-5-yl)-3-fluorophenyl)-5-([1,2,3]triazol-2-yl)methyl oxazolidin-2-one]
0.25 (≈ 0.593 µM)	0.125 (≈ 0.297 µM)	Cn1nnc(-c2ccc(-c3ccc(N4C[C@H](Cn5ccnn5)OC4=O)cc3F)cn2)n1 [Compound 9, (R)-3-(4-(2-(2-methyltetrazol-5-yl)pyridin-5-yl)-3-fluorophenyl)-5-([1,2,3]triazol-1-yl)methyl oxazolidin-2-one]
0.5 (≈ 1.18 µM)	0.25 (≈ 0.59 µM)	CC(=O)NC[C@H]1CN(c2ccc(-c3ccc(-c4nc(C)c(C)o4)cc3)c(F)c2)C(=O)O1 [Compound 11, (S)-3-(4-(4-(4,5-dimethyloxazol-2-yl)phenyl)-3-fluorophenyl)-2-oxo-5-oxazolidinylmethyl acetamide]
0.25 (≈ 0.593 µM)	0.25 (≈ 0.593 µM)	Cc1nnc(-c2ccc(-c3ccc(N4C[C@H](Cn5ccnn5)OC4=O)cc3F)cn2)o1 [Compound 13, (R)-3-(4-(2-(2-methyl-[1,3,4]oxadiazol-5-yl)pyridin-5-yl)-3-fluorophenyl)-5-([1,2,3]triazol-1-yl)methyl oxazolidin-2-one]
0.25 (≈ 0.615 µM)	0.25 (≈ 0.615 µM)	O=C1O[C@@H](Cn2ccnn2)CN1c1ccc(-c2ccc(-n3cncn3)nc2)c(F)c1 [Compound 14, (R)-3-(4-(2-([1,2,4]triazol-1-yl)pyridin-5-yl)-3-fluorophenyl)-5-([1,2,3]triazol-1-yl)methyl oxazolidin-2-one]
1 (≈ 2.36 µM)	1 (≈ 2.36 µM)	CC(=O)NC[C@H]1CN(c2ccc(-c3ccc(-c4nc(C)c(C)o4)nc3)c(F)c2)C(=O)O1 [Compound 15]
1 (≈ 2.69 µM)	2 (≈ 5.37 µM)	Cn1nnc(-c2ccc(-c3ccc(N4C[C@H](CF)OC4=O)cc3F)cn2)n1 [Compound 18, (R)-3-(4-(2-(2-methyltetrazol-5-yl)pyridin-5-yl)-3-fluorophenyl)-5-fluoromethyl oxazolidin-2-one]
32	32	Cl.NC[C@H]1CN(c2ccc(-c3ccc(-n4ccnc4)nc3)c(F)c2)C(=O)O1 [Compound 19, (S)-3-(4-(2-(imidazole-1-yl)pyridin-5-yl)-3-fluorophenyl)-5-aminomethyl oxazolidin-2-one hydrochloride]
1 (≈ 2.62 µM)	1 (≈ 2.62 µM)	Cc1nc(-c2ccc(-c3ccc(N4C[C@H](CO)OC4=O)cc3F)cc2)oc1C [Compound 21, (R)-3-(4-(4-(4,5-dimethyloxazol-2-yl)phenyl)-3-fluorophenyl)-5-hydroxymethyl oxazolidin-2-one]
0.25 (≈ 0.631 µM)	0.125 (≈ 0.315 µM)	CC(=O)NC[C@H]1CN(c2ccc(-c3ccc(-n4nccn4)nc3)c(F)c2)C(=O)O1 [Compound 25, (S)-3-(4-(2-([1,2,3]triazol-2-yl)pyridin-5-yl)-3-fluorophenyl)-2-oxo-5-oxazolidinylmethyl acetamide]
0.5 (≈ 1.17 µM)	0.5 (≈ 1.17 µM)	CC(=O)NC[C@H]1CN(c2ccc(-c3ccc(C4=NC(CO)CO4)cc3)c(F)c2)C(=O)O1 (stereo partly drawn) [Compound 26, (S)-3-(4-(4-(4(S)-hydroxymethyl-4,5-dihydroxazole-2-yl)phenyl)-3-fluorophenyl)-2-oxo-5-oxazolidinylmethyl acetamide]
0.5 (≈ 1.13 µM)	0.5 (≈ 1.13 µM)	CC(=O)NC[C@H]1CN(c2ccc(-c3ccc(-c4nc(CO)cs4)cc3)c(F)c2)C(=O)O1 [Compound 28, (S)-3-(4-(4-(4-hydroxymethylthiazol-2-yl)phenyl)-3-fluorophenyl)-2-oxo-5-oxazolidinylmethyl acetamide]
0.5 (≈ 1.41 µM)	1 (≈ 2.81 µM)	O=C1O[C@@H](CO)CN1c1ccc(-c2ccc(-n3nccn3)nc2)c(F)c1 [Compound 29, (R)-3-(4-(2-([1,2,3]triazol-2-yl)pyridin-5-yl)-3-fluorophenyl)-5-hydroxymethyl oxazolidin-2-one]

SMILES	MIC50 [1] [µg/mL]	MIC50 [2] [µg/mL]
CC(=O)NC[C@H]1CN(c2ccc(-c3ccc(N4CC(COC(=O)CN)CC4=O)nc3)c(F)c2)C(=O)O1 (stereo partly drawn) [Compound 1, (S)-3-(4-(2-(2-oxo-4-glycyloxymethylpylolidin-1-yl)pyridin-5-yl)-3-fluorophenyl)-2-oxo-5-oxazolidinylmethyl acetamide trifluoroacetic acid]	1 (≈ 2 µM)	0.25 (≈ 0.501 µM)
CC(=O)NC[C@H]1CN(c2ccc(-c3ccc(-n4cc(COC(=O)CN)nn4)nc3)c(F)c2)C(=O)O1 [Compound 2, (S)-3-(4-(2-(4-glycyloxymethyl-1,2,3-triazol-1-yl)pyridin-5-yl)-3-fluorophenyl)-2-oxo-5-oxazolidinylmethyl acetamide trifluoroacetic acid]	0.5 (≈ 1.03 µM)	0.125 (≈ 0.259 µM)
CC(=O)NC[C@H]1CN(c2ccc(-c3ccc(-c4cc(COC(=O)CN)on4)nc3)c(F)c2)C(=O)O1 [Compound 3, (S)-3-(4-(2-(5-glycyloxymethylisoxazol-3-yl)pyridin-5-yl)-3-fluorophenyl)-2-oxo-5-oxazolidinylmethyl acetamide trifluoroacetic acid]	0.25 (≈ 0.517 µM)	0.25 (≈ 0.517 µM)
CC(=O)NC[C@H]1CN(c2ccc(-c3ccc(N4CCC(OC(=O)CN)C4=O)nc3)c(F)c2)C(=O)O1 (stereo partly drawn) [Compound 5, (S)-3-(4-(2-(2-oxo-3-glycyloxypyrrolidine-1-yl)pyridin-5-yl)-3-fluorophenyl)-2-oxo-5-oxazolidinylmethyl acetamide trifluoroacetic acid]	0.5 (≈ 1.03 µM)	0.25 (≈ 0.515 µM)
CC(=O)NC[C@H]1CN(c2ccc(-c3ccc(C4=NOC(COC(=O)CN)C4)nc3)c(F)c2)C(=O)O1 (stereo partly drawn) [Compound 7, (S)-3-(4-(2-(5-glycyloxymethyl-4,5-dihydroisoxazole-3-yl)pyridin-5-yl)-3-fluorophenyl)-2-oxo-5-oxazolidinylmethyl acetamide trifluoroacetic acid]	0.5 (≈ 1.03 µM)	0.5 (≈ 1.03 µM)
Cc1nc(-c2ccc(-c3ccc(N4C[C@H](COC(=O)CN)OC4=O)cc3F)cc2)oc1C [Compound 23, (R)-3-(4-(4-(4,5-dimethyloxazol-2-yl)phenyl)-3-fluorophenyl)-5-glycyloxymethyl oxazolidin-2-one trifluoroacetic acid]	2 (≈ 4.55 µM)	2 (≈ 4.55 µM)
CC(=O)NC[C@H]1CN(c2ccc(-c3ccc(-c4nc(COC(=O)CN)cs4)cc3)c(F)c2)C(=O)O1 [Compound 30, (S)-3-(4-(4-(4-glycyloxymethylthiazol-2-yl)phenyl)-3-fluorophenyl)-2-oxo-5-oxazolidinylmethyl acetamide trifluoroacetic acid]	0.5 (≈ 1 µM)	0.5 (≈ 1 µM)
